From ChEMBL document CHEMBL3046571, “QSAR of 2,4-diphenyl-1,3-oxazolines for ovicidal activity against the two-spotted spider mite Tetranychus urticae” (2006)

Test system: Tetranychus urticae
Experiment: Acaricidal activity against Tetranychus urticae (two-spotted spider mite) in compound treated kidney bean leaf assessed as mortality of egg at 24 degC measured after 1 week
Type: functional
Settings: 168 h

SMILES	LC50 [µM]
Fc1cccc(F)c1C1=NC(c2ccc(OCC(F)(F)F)cc2)CO1 (stereo not given)	0.00141
CCCCCCCCc1ccc(C2COC(c3c(F)cccc3F)=N2)c(C)c1 (stereo not given)	0.00129
CC(C)Cc1ccc(C2COC(c3c(F)cccc3F)=N2)cc1 (stereo not given)	0.00159
C[Si](C)(C)c1ccc(C2COC(c3c(F)cccc3F)=N2)cc1 (stereo not given)	0.00151
CCCCCCCc1ccc(C2COC(c3c(F)cccc3F)=N2)c(F)c1 (stereo not given)	0.00132
CCCCCCc1ccc(C2COC(c3c(F)cccc3F)=N2)c(Cl)c1 (stereo not given)	0.00132
CCCCCCCCOc1ccc(C2COC(c3c(F)cccc3F)=N2)cc1 (stereo not given)	0.00129
CCCCCCc1ccc(C2COC(c3c(F)cccc3F)=N2)cc1F (stereo not given)	1.38
CN(C)c1ccc(C2COC(c3c(F)cccc3F)=N2)cc1 (stereo not given)	166
CCCCCCCCCCCCc1ccc(C2COC(c3c(F)cccc3F)=N2)cc1 (stereo not given)	0.00118
Fc1ccc(C2COC(c3c(F)cccc3F)=N2)c(Cl)c1 (stereo not given)	1.62
CCOc1ccc(C2COC(c3c(F)cccc3F)=N2)cc1 (stereo not given)	0.0166
Fc1ccc(C2COC(c3c(F)cccc3F)=N2)c(F)c1 (stereo not given)	0.17
Fc1ccc(C2COC(c3c(F)cccc3F)=N2)cc1Cl (stereo not given)	1.62
Fc1ccc(C2COC(c3c(F)cccc3F)=N2)cc1F (stereo not given)	1.7
CCCCCCCCCCOc1ccc(C2COC(c3c(F)cccc3F)=N2)cc1 (stereo not given)	0.0012
CCOc1cc(Cl)ccc1C1COC(c2c(F)cccc2F)=N1 (stereo not given)	1.48
Fc1cccc(F)c1C1=NC(c2ccc(Cl)cc2Cl)CO1 (stereo not given)	0.151
CS(=O)(=O)c1ccc(C2COC(c3c(F)cccc3F)=N2)cc1 (stereo not given)	1480
COc1cc(F)ccc1C1COC(c2c(F)cccc2F)=N1 (stereo not given)	1.62
Cc1ccc(C2COC(c3c(F)cccc3F)=N2)cc1C (stereo not given)	17.4
CCCCCCCCCCCCc1ccc(C2COC(c3c(F)cccc3F)=N2)c(Cl)c1 (stereo not given)	1.07
COc1ccc(C2COC(c3c(F)cccc3F)=N2)cc1 (stereo not given)	17.4

SMILES	LC50 [µM]
CCCCCCCCc1ccc(C2COC(c3c(F)cccc3F)=N2)c(OC)c1 (stereo not given)	0.126
Fc1cccc(F)c1C1=NC(c2cccc(Cl)c2)CO1 (stereo not given)	17
CCCCCCCCCCc1ccc(C2COC(c3c(F)cccc3F)=N2)c(F)c1 (stereo not given)	0.012
CCOc1cc(Br)ccc1C1COC(c2c(F)cccc2F)=N1 (stereo not given)	1.32
CCCCOc1cc(C(C)(C)C)ccc1C1COC(c2c(F)cccc2F)=N1 (stereo not given)	0.129
CCCCCCOc1cc(C(C)(C)C)ccc1C1COC(c2c(F)cccc2F)=N1 (stereo not given)	1.2
CCCCCc1ccc(C2COC(c3c(F)cccc3F)=N2)c(OCC)c1 (stereo not given)	0.00135
Fc1cccc(F)c1C1=NC(c2ccc(Cl)cc2)CO1 (stereo not given)	0.017
COc1cc(C(C)(C)C)ccc1C1COC(c2c(F)cccc2F)=N1 (stereo not given)	0.0144
CSc1ccc(C2COC(c3c(F)cccc3F)=N2)cc1 (stereo not given)	1.62
CCCCCCCCCSc1ccc(C2COC(c3c(F)cccc3F)=N2)cc1 (stereo not given)	0.12
CCCCCCCCc1ccc(C2COC(c3c(F)cccc3F)=N2)cc1 (stereo not given)	0.00135
CCc1ccc(C2COC(c3c(F)cccc3F)=N2)c(F)c1 (stereo not given)	1.62
CC(C)(C)c1ccc(C2COC(c3c(F)cccc3F)=N2)cc1 (stereo not given)	0.00159
CCCCCCCCCCCCCCCc1ccc(C2COC(c3c(F)cccc3F)=N2)cc1 (stereo not given)	0.0107
CC(C)Cc1ccc(C2COC(c3c(F)cccc3F)=N2)c(Cl)c1 (stereo not given)	0.00145
COc1ccccc1C1COC(c2c(F)cccc2F)=N1 (stereo not given)	174
CCOc1cc(F)ccc1C1COC(c2c(F)cccc2F)=N1 (stereo not given)	0.0155
C[S+]([O-])c1ccc(C2COC(c3c(F)cccc3F)=N2)cc1 (stereo not given)	155
Fc1ccc(C2COC(c3c(F)cccc3F)=N2)cc1 (stereo not given)	1.82
Cc1ccc(C2COC(c3c(F)cccc3F)=N2)c(C)c1 (stereo not given)	174
Cc1cc(Cl)ccc1C1COC(c2c(F)cccc2F)=N1 (stereo not given)	1.62
Fc1cccc(F)c1C1=NC(c2ccccc2)CO1 (stereo not given)	19.5

SMILES	LC50 [µM]
Fc1cccc(F)c1C1=NC(c2ccc(Br)cc2)CO1 (stereo not given)	0.0148
CCCCCCCCc1ccc(C2COC(c3c(F)cccc3F)=N2)c(F)c1 (stereo not given)	0.00129
CCOc1cccc(C2COC(c3c(F)cccc3F)=N2)c1 (stereo not given)	16.6
CCc1ccc(C2COC(c3c(F)cccc3F)=N2)c(Cl)c1 (stereo not given)	0.0155
CCCCCCCCCCCCCOc1ccc(C2COC(c3c(F)cccc3F)=N2)cc1 (stereo not given)	0.011
Fc1ccccc1C1COC(c2c(F)cccc2F)=N1 (stereo not given)	18.2
CC(C)c1ccc(C2COC(c3c(F)cccc3F)=N2)cc1 (stereo not given)	0.0166
CCc1ccc(C2COC(c3c(F)cccc3F)=N2)cc1 (stereo not given)	0.0174
Oc1ccc(C2COC(c3c(F)cccc3F)=N2)cc1 (stereo not given)	182
CCCCCCc1ccc(C2COC(c3c(F)cccc3F)=N2)c(F)c1 (stereo not given)	0.00138
Fc1cccc(F)c1C1=NC(c2ccc(C(F)(F)F)cc2)CO1 (stereo not given)	0.151
CCCCCc1ccc(C2COC(c3c(F)cccc3F)=N2)c(OCCC)c1 (stereo not given)	0.0129
Cc1cccc(C2COC(c3c(F)cccc3F)=N2)c1 (stereo not given)	182
CCCCCCCCCCCCc1ccc(C2COC(c3c(F)cccc3F)=N2)c(F)c1 (stereo not given)	0.112
Fc1cccc(F)c1C1=NC(c2ccc(Cl)c(Cl)c2)CO1 (stereo not given)	1.51
CCCCCCCCc1ccc(C2COC(c3c(F)cccc3F)=N2)c(Cl)c1 (stereo not given)	0.00123
Fc1cccc(F)c1C1=NC(c2ccc(OC(F)(F)F)cc2)CO1 (stereo not given)	0.0144
Fc1cc(Cl)ccc1C1COC(c2c(F)cccc2F)=N1 (stereo not given)	0.00162
CCCCCCc1ccc(C2COC(c3c(F)cccc3F)=N2)cc1 (stereo not given)	0.00145
CCCCCCCCCCCCCCOc1ccc(C2COC(c3c(F)cccc3F)=N2)cc1 (stereo not given)	0.107
CCc1cccc(C2COC(c3c(F)cccc3F)=N2)c1 (stereo not given)	174
CCCCOc1ccc(C2COC(c3c(F)cccc3F)=N2)cc1 (stereo not given)	0.00151
Fc1cccc(F)c1C1=NC(c2ccccc2Cl)CO1 (stereo not given)	1.7

SMILES	LC50 [µM]
CCCOc1cc(C(C)C)ccc1C1COC(c2c(F)cccc2F)=N1 (stereo not given)	0.00138
CCCOc1cc(C(C)(C)C)ccc1C1COC(c2c(F)cccc2F)=N1 (stereo not given)	0.0135
CCOc1cc(C(C)(C)C)ccc1C1COC(c2c(F)cccc2F)=N1 (stereo not given) [ETOXAZOLE]	0.0138
CC(C)Oc1ccc(C2COC(c3c(F)cccc3F)=N2)cc1 (stereo not given)	0.0158
Fc1cc(C2COC(c3c(F)cccc3F)=N2)ccc1Cl (stereo not given)	0.162
Cc1ccc(C2COC(c3c(F)cccc3F)=N2)cc1 (stereo not given)	1.82
Fc1cccc(C2COC(c3c(F)cccc3F)=N2)c1 (stereo not given)	18.2
CCCCCCCCCCc1ccc(C2COC(c3c(F)cccc3F)=N2)c(OC)c1 (stereo not given)	0.117
CCCCCCCCCCc1ccc(C2COC(c3c(F)cccc3F)=N2)cc1 (stereo not given)	0.00126
CCCCCCCCCc1ccc(C2COC(c3c(F)cccc3F)=N2)c(OC)c1 (stereo not given)	0.012
CCc1ccccc1C1COC(c2c(F)cccc2F)=N1 (stereo not given)	17.4
CCOc1cc(C(C)C)ccc1C1COC(c2c(F)cccc2F)=N1 (stereo not given)	0.145
Cc1ccccc1C1COC(c2c(F)cccc2F)=N1 (stereo not given)	182
COc1cccc(C2COC(c3c(F)cccc3F)=N2)c1 (stereo not given)	17.4
CCCCc1ccc(C2COC(c3c(F)cccc3F)=N2)cc1 (stereo not given)	0.00159
CCCCCCCCCCc1ccc(C2COC(c3c(F)cccc3F)=N2)c(Cl)c1 (stereo not given)	1.15
CCCCOc1cc(F)ccc1C1COC(c2c(F)cccc2F)=N1 (stereo not given)	0.00145
CCOc1ccccc1C1COC(c2c(F)cccc2F)=N1 (stereo not given)	166
CCCCCCc1ccc(C2COC(c3c(F)cccc3F)=N2)cc1Cl (stereo not given)	1.32
CC(C)Sc1ccc(C2COC(c3c(F)cccc3F)=N2)cc1 (stereo not given)	1.51
COc1cc(Cl)ccc1C1COC(c2c(F)cccc2F)=N1 (stereo not given)	1.55
